From the OPERA property sets (Mansouri et al. 2018) come the findings set out here.

Each structure is given as a SMILES string. Values after ≈ are worked out from the molar mass of the structure shown.

For the first data set the following is noted: 20 °C.
With `O=C(O)CNC(=O)CNS(=O)(=O)c1ccc2ccccc2c1`, the solubility (in general, the dissolved amount per volume that the medium holds) was 2.02 mM (≈ 650 µg/mL).

Molecule `CCC1(CC)C(=O)NC(=O)N=C1N` yielded a solubility of 40.1 mM (≈ 7350 µg/mL).

`CC(=O)N[C@@H](CSc1ccc(Cl)c(Cl)c1)C(=O)O` returned a solubility of 1.3 mM (≈ 400 µg/mL).

Regarding `COc1ccc(CO)cc1`, the solubility is 14.5 mM (≈ 2000 µg/mL).

`CCCCCS` registered a solubility of 1.5 mM (≈ 156 µg/mL).

The molecule `CN(C)c1ncnc2nccnc12` had a solubility of 95.1 mM (≈ 16700 µg/mL).

Still in this data set, the particulars now being: 21 °C.
Take `NC(N)=NCCS(=O)(=O)O`: the solubility was found to be 233 mM (≈ 39000 µg/mL).

In the case of `O=C(O)COc1ccc([N+](=O)[O-])cc1[N+](=O)[O-]`, the solubility amounted to 11.6 mM (≈ 2800 µg/mL).

`NC(=S)NCNC(N)=S` came in with a solubility of 21.3 mM (≈ 3500 µg/mL).

Staying with this data set, now noted: 22 °C.
In turn, `O=C1CCCCCCCCCCCCCCCCCN1` returned a solubility of 1.42 mM (≈ 400 µg/mL).

The data set is the same for the next values; noted with them: 23 °C.
Molecule `NC(=O)N/N=C/[C@H](O)[C@@H](O)[C@@H](O)[C@H](O)CO` had a solubility of 222 mM (≈ 52700 µg/mL).

With `O=S(=O)(c1ccccc1O)c1ccccc1O`, the solubility turned out to be 0.48 mM (≈ 120 µg/mL). This solubility lies about 460-fold lower than the previous one.

Consider `Nc1cc([N+](=O)[O-])ccc1O`, for which the solubility was 6 mM (≈ 925 µg/mL). Against the preceding molecule, the solubility is about 12-fold higher.

On to `CCCC(N)C(=O)O` (racemic), for which the solubility is 805 mM (≈ 94300 µg/mL).

The same data set, now with this note: 24 °C.
`O=C(O)c1ccc(C(=O)O)c(Br)c1` displayed a solubility of 7.35 mM (≈ 1800 µg/mL).

Regarding `O=Cc1cccc(C(=O)O)c1O`, the solubility was 3.61 mM (≈ 600 µg/mL). Compared with the last molecule, the solubility is about 2-fold lower.

Molecule `Cc1ccc(S(N)(=O)=O)cc1N` displayed a solubility of 12.1 mM (≈ 2260 µg/mL).

The same data set, now with this note: 25 °C.
`CCCCCCCCCCCCCCCCNC(=O)C(C)O` (stereo not given) came in with a solubility of 0.223 mM (≈ 70 µg/mL).

`ON=C1CCCCCC1=NO`: the solubility was determined as 37.6 mM (≈ 5870 µg/mL). Against the preceding molecule, the solubility is about 170-fold higher.

The molecule `N#CCCN(CCC#N)C(CC(=O)O)C(=O)O` (racemic) returned a solubility of 29.3 mM (≈ 7000 µg/mL).

Regarding `CCSC(C(=O)O)c1ccccc1` (stereo not given), the solubility came to 27 mM (≈ 5300 µg/mL).

In turn, `CC(=O)N[C@@H](C(=O)O)C(C)C` (racemic) showed a solubility of 354 mM (≈ 56400 µg/mL).

`CCc1nc2c(c(=O)n(C)c(=O)n2C)n1C` displayed a solubility of 27 mM (≈ 6000 µg/mL).

Regarding `Cc1[nH]c(=O)[nH]c(=O)c1CC(=O)O`, the solubility amounted to 4.89 mM (≈ 900 µg/mL).

For `CCCS`, the solubility is 25 mM (≈ 1900 µg/mL).

For `NP(N)(=O)c1ccccc1`, the solubility amounted to 71.1 mM (≈ 11100 µg/mL).

Regarding `CCCCCCCCCCNC(=O)C(C)O` (stereo not given), the solubility was 0.436 mM (≈ 100 µg/mL).

Molecule `O=C(CCl)NC(=O)CCl` came in with a solubility of 5.88 mM (≈ 1000 µg/mL). This solubility is about 13-fold higher than that of the molecule before.

Regarding `CCCCOC(=O)c1cccnc1`, the solubility is 14.6 mM (≈ 2610 µg/mL).

In the case of `O=C1OCc2ccc(Cl)cc21`, the solubility is 3.3 mM (≈ 556 µg/mL). This solubility lies about 4.4-fold lower than the previous one.

Molecule `NC(=O)c1ccc(S(N)(=O)=O)cc1` yielded a solubility of 4.99 mM (≈ 1000 µg/mL).

For `Cc1cc(C)nc(N)n1`, the solubility turned out to be 325 mM (≈ 40000 µg/mL).

The molecule `N#CNC(N)=S` displayed a solubility of 989 mM (≈ 100000 µg/mL).

For the molecule `CCCOCCC(=O)OCCC`, the solubility came to 20.7 mM (≈ 3600 µg/mL).

`Nc1ccc2c(c1)C(=O)OC2` yielded a solubility of 9.09 mM (≈ 1360 µg/mL).

`CC(C)(CCC(C)(C)CC(=O)O)CC(=O)O` showed a solubility of 0.738 mM (≈ 170 µg/mL).

Take `COC(C)C(NC=O)C(=O)O` (racemic): the solubility came to 242 mM (≈ 39000 µg/mL).

Take `CCCOCCC(=O)OC`: the solubility was 233 mM (≈ 34000 µg/mL). This solubility and that of the molecule before are within 1.5-fold of each other.

`O=C(O)c1ccc2ccccc2n1` had a solubility of 81.1 mM (≈ 14000 µg/mL).

`O=C1OCc2ccc(Br)cc21` registered a solubility of 2.25 mM (≈ 480 µg/mL). Against the preceding molecule, the solubility is about 36-fold lower.

Take `CC1OC(=O)c2cc(N)ccc21` (stereo not given): the solubility came out at 16.3 mM (≈ 2650 µg/mL). This solubility lies about 7.2-fold higher than the previous one.

`CCCCCCCOC(=O)c1cccnc1` gave a solubility of 1.81 mM (≈ 400 µg/mL). Against the preceding molecule, the solubility is about 9-fold lower.

`O=C(O)c1ccc([N+](=O)[O-])c2cccnc12` registered a solubility of 0.683 mM (≈ 149 µg/mL).

On to `CC(=O)Oc1ccccc1/C=C/C(=O)O`, for which the solubility was 0.698 mM (≈ 144 µg/mL). This solubility and that of the molecule before are within 1.5-fold of each other.

Consider `Oc1ccc(C2CCCCC2)c(O)c1`, for which the solubility came out at 2.65 mM (≈ 510 µg/mL).

Consider `N=C(NO)C(=N)NO`, for which the solubility came to 167 mM (≈ 19700 µg/mL).

For the molecule `CCCCCCCCCCOC(=O)c1cccnc1`, the solubility turned out to be 0.646 mM (≈ 170 µg/mL).

In the case of `O=Cc1ccc(O)c(C(=O)O)c1`, the solubility turned out to be 2.32 mM (≈ 385 µg/mL).

The molecule `CCCCCOC(=O)C(C)O` (stereo not given) gave a solubility of 62.4 mM (≈ 10000 µg/mL).

Regarding `CCCCCCCCCCCNC(=O)c1cccnc1`, the solubility was found to be 0.941 mM (≈ 260 µg/mL).

Regarding `CCCCCOP(=O)(OCC)OCC`, the solubility was 33.4 mM (≈ 7500 µg/mL).

The molecule `Cc1ccc(S(C)(=O)=O)cc1` came in with a solubility of 10.3 mM (≈ 1750 µg/mL).

`COc1cc(Br)c2c(c1OC)C(=O)OC2`: the solubility is 0.117 mM (≈ 32 µg/mL).

`CC(C)C1CCC(=NO)C(=NO)C1` (stereo not given) yielded a solubility of 4.07 mM (≈ 750 µg/mL).

As to `CC1(C)OC(=O)c2cc([N+](=O)[O-])ccc21`, the solubility stood at 0.888 mM (≈ 184 µg/mL).

For `CC1CCCC(=NO)C1=NO` (stereo not given), the solubility stood at 25.6 mM (≈ 4000 µg/mL).

As for `C[Si](C)(C)CCCN`, the solubility was 11.2 mM (≈ 1470 µg/mL). Against the preceding molecule, the solubility is about 2.3-fold lower.

Molecule `Sc1nc2ccccc2o1` gave a solubility of 6.61 mM (≈ 1000 µg/mL). Against the preceding molecule, the solubility is about 1.7-fold lower.

Consider `CCCCCCCCOC(=O)c1cccnc1`, for which the solubility came out at 0.807 mM (≈ 190 µg/mL). Against the preceding molecule, the solubility is about 8.2-fold lower.

For the molecule `NC(=O)OC(CCl)CCl`, the solubility came to 43.6 mM (≈ 7500 µg/mL).

Molecule `CCOc1ccc(NC(C)=O)c(C)c1` came in with a solubility of 14.5 mM (≈ 2800 µg/mL).

Turning to `CCSC(=S)N[C@@H](CC(=O)O)C(=O)O`, the solubility was found to be 41.1 mM (≈ 9750 µg/mL).

Turning to `CC(=O)Nc1ccc(C)cc1`, the solubility stood at 8.04 mM (≈ 1200 µg/mL).

`ON=C1CCCCCCCCC1=NO` came in with a solubility of 2.62 mM (≈ 520 µg/mL).

Still in this data set, the particulars now being: 26 °C.
The molecule `O=C(S)CCCCCCC(=O)S` came in with a solubility of 5.82 mM (≈ 1200 µg/mL).

Molecule `O=C(S)CCCCC(=O)S` gave a solubility of 18.5 mM (≈ 3300 µg/mL).

On to `O=C(S)CCCCCCCCC(=O)S`, for which the solubility was determined as 0.853 mM (≈ 200 µg/mL). This solubility is about 22-fold lower than that of the molecule before.

Still in this data set, the particulars now being: 30 °C.
In turn, `CCCOc1ccc(NC(C)=O)cc1` came in with a solubility of 0.88 mM (≈ 170 µg/mL).

Consider `CCc1ccccc1NC(C)=O`, for which the solubility was 25.7 mM (≈ 4190 µg/mL).

As to `CN(C)C(=O)c1cccc(C(=O)N(C)C)c1`, the solubility was determined as 3070 mM (≈ 676000 µg/mL). Against the preceding molecule, the solubility is about 120-fold higher.
